From patent publication US9943500B2, “Methods of treating topical microbial infections” (LUODA PHARMA PTY LIMITED, priority 2013, dated 2018)
Converted amounts (≈) assume the structure as drawn.

Experiments:
[1] = tested on: 51 Australian bovine mastitis isolates, primarily S. aureus, S. agalactiae and S. uberis; assay: Minimum inhibitory concentration assay, bovine mastitis isolates (Example 3); format: cell-based; settings: all 51 isolates; read-out: MIC90
From the text: Fifty-one dairy bovine mastitis isolates, encompassing a variety of bacterial species, were isolated from milk samples collected from dairy farms in rural South Australia by the University of Adelaide Ambulatory Clinic. Cellular morphology observed from Gram stains and catalase testing was used to differentiate Staphylococcus, Streptococcus and Corynebacterium species from Gram-negative species. Further biochemical testing including coagulase, Lancefield grouping, esculin hydrolysis and CAMP tests were used to identify the isolates to species level. Where biochemical test results were not definitive in identifying species, amplification and sequencing of the 16S ribosomal RNA gene was used to confirm the identity of the isolates.
Minimum inhibitory concentration tests were performed in the manner outlined by the CLSI (CLSI 2012). Test compounds were dispensed into a 96-well microtitre tray containing 90 μl of CAMHB in 90 μl volumes and serial diluted to obtain a concentration gradient ranging from 128 μg/ml to 0.25 μg/ml (see FIG. 24). For Streptococcus species, CAMHB was replaced with a CAMHB supplement with 4% lysed-sheep blood (4% LSB:CAMHB). 4% LSB:CAMHB was prepared by mixing 5 ml sheep blood to 5 ml milliQ water, and repeated freezing at −20° C. and thawing, followed by centrifuged for 20 min at 7000 rpm. 7 ml of the supernatant was removed and added to 93 mL of CAMB.
Bacterial suspensions were prepared by emulsifying fresh colonies obtained from an overnight culture on Sheep Blood Agar (SBA) in 4 mls of 9.1 g/l physiological saline to an optical density read at 600 nm (OD600 nm) between 1.00 and 1.20. Standardised bacterial suspensions were diluted 1:10 in physiological saline and dispensed into all wells, excluding the negative control wells, in 10 μL volumes giving a final concentration of between 4×10^5 and 5×10^5 CFU/mL in each well. 96-well microtitre trays were incubated for 24 hours at 37° C. in 5% CO2 and then assessed both visually and using OD readings from a microplate reader at a wavelength of 600 nm. These tests were performed in duplicate and repeated if discrepancies in MIC values were observed between replicates.
The minimum inhibitory concentration (MIC) was determined to be the lowest concentration of antibiotic that prevented growth of bacteria both visually and using OD readings. MIC values were collated and used to determine the lowest concentration of each compound effective against 50% and 90% of isolates, known as the MIC50 and MIC90 respectively. These values as well as the range of MIC values were then used for direct comparisons between test compounds and for general comparisons with ampicillin.

[2] = tested on: methicillin-sensitive and methicillin-resistant strains of Staphylococcus; assay: Minimum bactericidal concentration determination, Staphylococcus isolates (Example 1)
Protocol: Following determination of the MIC using the 96 well MIC plate, a variation of the drop plate method was used to determine minimum bactericidal concentration (MBC) for each of the test compounds. These were analysed using samples taken from the MIC plate following incubation. […] Each concentration was pipetted in duplicate with duplicates being pipetted on an inner ring of drops. The plates were incubated at 37° C. overnight and assessed the following day for growth. The MBC was defined as the concentration at which 99.9% of colonies were eradicated, which was visually assessed by a lack of growth on the agar where the drop was placed.

red blood cells = assay: Eukaryotic cell toxicity testing, erythrocyte haemolysis; format: cell-based; settings: 2% blood cell solution, one hour at 37° C.
Protocol: Erythrocyte haemolysis was used in order to test the toxicity of all five compounds to eukaryotic cells. Blood samples were washed using 9.1 g/L saline solution and centrifuged at 2500 rpm for 10 minutes. This process was repeated until cellular debris and partially lysed cells were removed from solution. 2 mL of the remaining blood cells were suspended in 98 mL of 9.1 g/L saline solution to produce a 2% blood cell solution, which was dispensed in 90 μL volumes into the wells of a 96 well plate. The compound solutions as well as chloramphenicol were prepared from stock solution to a concentration of 256 μg/mL (as described above). Chloramphenicol was used as a negative control for erythrocyte lysis while a ready to use solution of amphotericin B was used as a positive control. 90 μL of the compounds and controls were added to the final well in different rows. These compounds were serially diluted across the row in order to test the different concentrations of antimicrobials. Wells containing only 2% blood solution were also used to assess variation between readings from different columns on the 96 well plates. These tests were incubated at 37° C. for one hour and then assessed for lysis both visually and using a microplate reader to measure optical density at 600 nm wavelengths. Each test was performed in duplicate and then repeated in quadruplicate in order to ensure accuracy.

[3] = tested on: ATCC 49775 reference strain; assay: Microdilution time-kill assay (optical density); settings: 48 hour period; one, four and eight times the MIC
Protocol: Time-kill assays were performed according to the M26-A guidelines of the CLSI, with modifications. The test compounds and ampicillin were serial diluted in CAMHB across the rows of a 96 well plate and a bacterial suspension was prepared and added in the same manner as the MIC testing. The 96 well plates were then incubated at 37° C. for 48 hours being removed at specific time points and OD for the positive control wells as well as one, four and eight times the MIC of the compound specific to the strain being tested were assessed using a spectrophotometer at a wavelength of 600 nm. The time points assessed were 0, 1, 2, 4, 8, 12, 24 and 48 hours after the addition of the bacterial suspension to the wells. Each test compound was tested in triplicate while ampicillin was tested in duplicate and this test was independently repeated. […] One strain from each of the categories of Staphylococcus in the isolate collection (methicillin-sensitive, methicillin resistant and coagulase negative) were selected as well as the ATCC reference strain for comparison. These strains were strains MSS 1, MSS 11, MRSA 9 and the ATCC 49775 reference strain.

For `CC[C@@H](C(=O)[C@@H](C)[C@@H](O)[C@H](C)CCc1ccc(C)c(O)c1C(=O)O)[C@H]1O[C@](CC)([C@H]2CC[C@](O)(CC)[C@H](C)O2)C[C@@H]1C` [LP 1369, Lasalocid], the MIC90 [1] was 4 mg/L (≈ 6.77 µM), the “bactericidal activity (MBC testing)” value ([2]; lower concentrations) was “some bactericidal activity in lower concentrations” and the “MBC50 rank among test compounds” value ([2]; methicillin-sensitive isolates) was “lowest MBC50 values”. The “strain type for which bactericidal activity was more consistent” value ([2]; methicillin-sensitive versus methicillin-resistant strains) was “more consistently for methicillin-sensitive strains”, the “concentration at which lysis was most visually evident” value (red blood cells) was 64 µg/mL and the “concentration range in which some lysis of cells was observed” value (red blood cells) was 32 to 128 µg/mL. For the same compound, the “growth (optical density) compared to growth control” value [3] was “prevented the growth”.
